Experimental data published in patent publication US7348351B2, “Substituted 3-alkyl and 3-arylalkyl 1H-indol-1yl acetic acid derivatives as inhibitors of plasminogen activator inhibitor-1 (PAI-1)” (Wyeth, priority 2002, dated 2008).

Legend:
[1] = biological target: T1, recombinant human plasminogen activator inhibitor-1 (Homo sapiens, UniProt P05121); assay: Primary Screen for the PAI-1 Inhibition (residual tPA activity, chromogenic Spectrozyme-tPA); format: biochemical; conditions: 25 μM test compound; 140 nM PAI-1, 70 nM tPA, pH 6.6
T1 construct: purchased Molecular Innovations, Royal Oak, Mich
Description: Primary Screen for the PAI-1 Inhibition
Test compounds were dissolved in DMSO at a final concentration of 10 mM, then diluted 100× in physiologic buffer. The inhibitory assay was initiated by the addition of the test compound (1-100 μM final concentration, maximum DMSO concentration of 0.2%) in a pH 6.6 buffer containing 140 nM recombinant human plasminogen activator inhibitor-1 (Molecular Innovations, Royal Oak, Mich.). Following a 1 hour incubation at room temperature, 70 nM of recombinant human tissue plasminogen activator (tPA) was added, and the combination of the test compound, PAI-1 and tPA was incubated for an additional 30 minutes. Following the second incubation, Spectrozyme-tPA (American Diagnostica, Greenwich, Conn.), a chromogenic substrate for tPA, was added and absorbance read at 405 nm at 0 and 60 minutes. Relative PAI-1 inhibition is equal to the residual tPA activity in the presence of test compound and PAI-1. Control treatments included the complete inhibition of tPA by PAI-1 at the molar ratio employed (2:1), and the absence of any effect of the test compound on tPA alone.

[2] = biological target: human PAI-1 (Homo sapiens, UniProt P05121); assay: Assay for Determining IC50 of Inhibition of PAI-1 (antibody detection of active PAI-1 bound to tPA-coated plate); format: biochemical; conditions: human PAI-1 50 ng/ml, pH 7.5, 33B8 monoclonal antibody detection
Description: Assay for Determining IC50 of Inhibition of PAI-1
This assay was based upon the non-SDS dissociable interaction between tPA and active PAI-1. Assay plates were initially coated with human tPA (10 μg/ml). The test compounds were dissolved in DMSO at 10 mM, then diluted with physiologic buffer (pH 7.5) to a final concentration of 1-50 μM. The test compounds were incubated with human PAI-1 (50 ng/ml) for 15 minutes at room temperature. The tPA-coated plate was washed with a solution of 0.05% Tween 20 and 0.1% BSA, then the plate was blocked with a solution of 3% BSA. An aliquot of the test compound/PAI-1 solution was then added to the tPA-coated plate, incubated at room temperature for 1 hour, and washed. Active PAI-1 bound to the plate was assessed by adding an aliquot of a 1:1000 dilution of the 33B8 monoclonal antibody against human PAI-1, and incubating the plate at room temperature for 1 hour (Molecular Innovations, Royal Oak, Mich.). […] The plate was incubated 45 minutes at room temperature, and color development was determined at OD405 nm. The quantitation of active PAI-1 bound to tPA at varying concentrations of the test compound was used to determine the IC50. Results are analyzed using a logarithmic best-fit equation. The assay sensitivity was 5 ng/ml of human PAI-1 as determined from a standard curve ranging from 0-100 ng/ml.

T1 sequence (P05121 24-402): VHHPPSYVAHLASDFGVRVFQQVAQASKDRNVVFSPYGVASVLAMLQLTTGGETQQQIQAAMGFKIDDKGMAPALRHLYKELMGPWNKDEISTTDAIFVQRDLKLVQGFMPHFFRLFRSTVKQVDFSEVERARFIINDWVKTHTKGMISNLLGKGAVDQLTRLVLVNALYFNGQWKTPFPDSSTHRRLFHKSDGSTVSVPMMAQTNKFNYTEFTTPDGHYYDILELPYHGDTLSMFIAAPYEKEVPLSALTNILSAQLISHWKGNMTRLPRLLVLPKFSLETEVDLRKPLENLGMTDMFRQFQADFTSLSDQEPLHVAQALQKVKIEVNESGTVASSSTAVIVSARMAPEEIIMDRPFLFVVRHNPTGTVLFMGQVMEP
Chain of human PAI-1 (P05121 24-402): as above

Row | inhibition at 25 µM [1] [%] | melting point [°C] | IC50 [2] [µM] | % Inhibition @ 25 μM [1] [%] | SMILES
1 | 100 | 150 to 155 | – | – | O=C(O)Cn1cc(Cc2cc(C(F)(F)F)cc(C(F)(F)F)c2)c2cc(-c3ccc(Cl)cc3Cl)ccc21 [Example 3, [3-[3,5-bis(trifluoromethyl)benzyl]-5-(2,4-dichlorophenyl)-1H-indol-1-yl]acetic acid]
2 | 35 | 175 to 176 | – | – | O=C(O)Cn1cc(Cc2cc(C(F)(F)F)cc(C(F)(F)F)c2)c2cc(-c3cccc(C(F)(F)F)c3)ccc21 [Example 4, {3-[3,5-bis(triflu romethyl)benzyl]-5-[3-(trifluoromethyl)phenyl]-1H-indol-1-yl}acetic acid]
3 | 31 | 188 to 190 | 15.1 | – | O=C(O)Cn1cc(Cc2cc(C(F)(F)F)cc(C(F)(F)F)c2)c2cc(-c3ccc(OC(F)(F)F)cc3)ccc21 [Example 2]
4 | 26 | – | – | – | CC(C)c1ccc(Cc2cn(CC(=O)O)c3ccc(-c4cccc(C(F)(F)F)c4)cc23)cc1 [Example 9, [3-(4-Isopropyl-benzyl)-5-(3-trifluoromethyl-phenyl)-indol-1-yl]acetic acid]

More lines, now with the values behind:

Row | SMILES | inhibition at 25 µM [1] [%] | melting point [°C] | IC50 [2] [µM] | % Inhibition @ 25 μM [1] [%]
5 | CC(C)CC(C)c1cn(CC(=O)O)c2ccc(-c3ccc(Cl)cc3Cl)cc12 (centres unmarked) [Example 10, [5-(2,4-Dichloro-phenyl)-3-(1,3-dimethyl-butyl)-indol-1-yl]-acetic acid] | 48 | – | – | –
6 | CC(c1ccccc1)c1cn(CC(=O)O)c2ccc(-c3ccc(Cl)cc3Cl)cc12 (centres unmarked) [Example 11, [5-(2,4-Dichloro-phenyl)-3-(1-phenyl-ethyl)-indol-1-yl]-acetic acid] | 26 | – | – | –
7 | CC(c1ccccc1)c1cn(CC(=O)O)c2ccc(-c3cccc(C(F)(F)F)c3)cc12 (centres unmarked) [Example 6, [3-(1-Phenyl-ethyl)-5-(3-trifluoromethyl-phenyl)-indol-1-yl]acetic acid] | 49 | – | – | –
8 | CC(c1cccs1)c1cn(CC(=O)O)c2ccc(-c3cccc(C(F)(F)F)c3)cc12 (centres unmarked) [Example 7, [3-(1-Thiophen-2-yl-ethyl)-5-(3-trifluoromethyl-phenyl)-indol-1-yl]acetic acid] | 47 | – | – | –
9 | CC(c1cn(CC(=O)O)c2ccc(-c3cccc(C(F)(F)F)c3)cc12)C1CCCCC1 (centres unmarked) [Example 8, [3-(1-Cyclohexyl-ethyl)-5-(3-trifluoromethyl-phenyl)-indol-1-yl]acetic acid] | 64 | – | – | –
10 | CC(c1cn(CC(=O)O)c2ccc(-c3ccc(Cl)cc3Cl)cc12)C1CCCCC1 (centres unmarked) [Example 12, [3-(1-Cyclohelxy-ethyl)-5-(2,4-dichloro-phenyl)-indol-1-yl]-acetic acid] | – | – | – | 48
